Experimental findings from the supplement of paper PMC10883282 are described below.

The structures appear in SMILES notation. Counter-ions that a name gives are not always drawn. ± gives the standard deviation of the averaged measurements.

The assay concerns SK-ES-1. Description: relative viability vs DMSO control (72 h) (fraction); higher = more viable cells. The procedure, abridged: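 A 5 µM positive control and 0.1% DMSO vehicle ran alongside sarcoma cell lines seeded in 384-well plates to reach 80–90% confluence. Serially diluted compound, 2.5 µl from source plates of 10 mM to 0.0002 mM, was added after 24 h, and the plates were held 72 h at 37 °C, 5% CO2. Relative viability was worked out from ATPLite readings as percent growth averaged over up to triplicate wells. The values were rescaled so that 1 is full and 0 is none.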

Consider `COc1c(OCCCN2CCOCC2)ccc2c1N=C(NC(=O)c1cnc(N)nc1)N1CCN=C21` [Copanlisib], for which the relative viability came to 1.02 ± 0.022 (0.00017 µM); 1.07 ± 0.036 (0.00051 µM); 1.01 ± 0.021 (0.00152 µM); 0.808 ± 0.019 (0.00457 µM); 0.629 ± 0.015 (0.01372 µM); 0.4325 ± 0.0023 (0.04115 µM). In addition, the relative viability reads like this: (0.1235 µM) 0.3049 ± 0.0025; (0.3704 µM) 0.214 ± 0.016; (1.111 µM) 0.15 ± 0.0035; (3.333 µM) 0.0822 ± 0.0034; (10 µM) 0.0455 ± 0.0028.

As to `COc1cccc2c1C(=O)c1c(O)c3c(c(O)c1C2=O)C[C@@](O)(C(=O)CO)C[C@@H]3O[C@H]1C[C@H](N)[C@H](O)[C@H](C)O1` [Doxorubicin Hydrochloride], the relative viability (0.00017 µM) turned out to be 0.999 ± 0.033; the relative viability (0.00051 µM) was found to be 1.05 ± 0.074; the relative viability (0.00152 µM) is 1 ± 0.057; the relative viability (0.00457 µM) is 0.991 ± 0.085; the relative viability (0.01372 µM) was found to be 0.604 ± 0.065; the relative viability (0.04115 µM) turned out to be 0.307 ± 0.025. Moreover, the relative viability was 0.123 ± 0.014 (0.1235 µM); 0.0254 ± 0.0066 (0.3704 µM); 0.000533 ± 0.00072 (1.111 µM); -0.000167 ± 0.00091 (3.333 µM); 0.00357 ± 0.00093 (10 µM).

With `CO[C@H]1C[C@@H]2CC[C@@H](C)[C@@](O)(O2)C(=O)C(=O)N2CCCC[C@H]2C(=O)O[C@H]([C@H](C)C[C@@H]2CC[C@@H](OP(C)(C)=O)[C@H](OC)C2)CC(=O)[C@H](C)/C=C(\C)[C@@H](O)[C@@H](OC)C(=O)[C@H](C)C[C@H](C)/C=C/C=C/C=C/1C` [Ridaforolimus], the relative viability is 1.03 ± 0.059 (0.00017 µM); 1.04 ± 0.033 (0.00051 µM); 0.978 ± 0.051 (0.00152 µM); 0.806 ± 0.055 (0.00457 µM); 0.675 ± 0.037 (0.01372 µM); 0.643 ± 0.037 (0.04115 µM). Also, the relative viability by setting is: (0.1235 µM) 0.601 ± 0.014; (0.3704 µM) 0.555 ± 0.026; (1.111 µM) 0.56 ± 0.0043; (3.333 µM) 0.545 ± 0.029; (10 µM) 0.52 ± 0.011.

As to `COc1cc2nccc(Oc3ccc(NC(=O)Nc4cc(C)on4)c(Cl)c3)c2cc1OC` [Tivozanib], the relative viability by setting is: (0.00017 µM) 1.02 ± 0.058; (0.00051 µM) 1.02 ± 0.019; (0.00152 µM) 1.03 ± 0.065; (0.00457 µM) 1.04 ± 0.028; (0.01372 µM) 1.11 ± 0.021; (0.04115 µM) 1.07 ± 0.021. The relative viability is, setting by setting: (0.1235 µM) 1.08 ± 0.06; (0.3704 µM) 1.08 ± 0.023; (1.111 µM) 1.06 ± 0.041; (3.333 µM) 0.973 ± 0.035; (10 µM) 0.518 ± 0.018.

Take `C[C@@H](c1ccc2nccn2c1)n1nnc2ncc(-c3cnn(C)c3)nc21` [Volitinib]: the relative viability (0.00017 µM) was 1.02 ± 0.025; the relative viability (0.00051 µM) was 1.01 ± 0.06; the relative viability (0.00152 µM) is 1.05 ± 0.031; the relative viability (0.00457 µM) stood at 1.07 ± 0.021; the relative viability (0.01372 µM) came out at 1.05 ± 0.047; the relative viability (0.04115 µM) was determined as 1.04 ± 0.033. The relative viability runs as follows: (0.1235 µM) 1.04 ± 0.051; (0.3704 µM) 1.03 ± 0.036; (1.111 µM) 1.05 ± 0.1; (3.333 µM) 1.05 ± 0.058; (10 µM) 1.01 ± 0.083.

In the case of `COc1cc2c(cc1O)CCN[C@]21CS[C@@H]2c3c(OC(C)=O)c(C)c4c(c3[C@H](COC1=O)N1[C@@H]2[C@H]2c3c(cc(C)c(OC)c3O)C[C@@H]([C@@H]1O)N2C)OCO4` [Trabectedin], the relative viability stood at 0.945 ± 0.051 (2 pM); 0.859 ± 0.046 (5 pM); 0.643 ± 0.086 (15 pM); 0.388 ± 0.069 (50 pM); 0.169 ± 0.019 (0.00014 µM); 0.0592 ± 0.008 (0.00041 µM). Further, the relative viability by setting is: (0.0012 µM) 0.00217 ± 0.0018; (0.0037 µM) 3.33e-05 ± 0.00035; (0.011 µM) 0.0054 ± 0.0013; (200 fM) 1.02 ± 0.063; (600 fM) 0.938 ± 0.031.

On to `Cc1nc(-c2cn3c(n2)-c2ccc(-c4cnn(C(C)(C)C(N)=O)c4)cc2OCC3)n(C(C)C)n1` [Taselisib], for which the relative viability came out at 0.973 ± 0.069 (0.00017 µM); 0.984 ± 0.066 (0.00051 µM); 0.985 ± 0.013 (0.00152 µM); 0.994 ± 0.028 (0.00457 µM); 0.899 ± 0.074 (0.01372 µM); 0.761 ± 0.038 (0.04115 µM). Further, the relative viability (0.1235 µM) was found to be 0.541 ± 0.045; the relative viability (0.3704 µM) stood at 0.41 ± 0.012; the relative viability (1.111 µM) amounted to 0.348 ± 0.017; the relative viability (3.333 µM) was determined as 0.288 ± 0.012; the relative viability (10 µM) turned out to be 0.22127 ± 0.00015.

In the case of `COc1cc2c(Oc3ccc4[nH]c(C)cc4c3F)ncnc2cc1OCCCN1CCCC1` [Cediranib], the relative viability stood at 1.04 ± 0.014 (0.00017 µM); 1.07 ± 0.058 (0.00051 µM); 1.1 ± 0.02 (0.00152 µM); 1.06 ± 0.033 (0.00457 µM); 1.06 ± 0.066 (0.01372 µM); 1.07 ± 0.015 (0.04115 µM). The relative viability turned out to be 1.062 ± 0.0014 (0.1235 µM); 1.07 ± 0.064 (0.3704 µM); 0.877 ± 0.033 (1.111 µM); 0.763 ± 0.019 (3.333 µM); 0.133 ± 0.049 (10 µM).

Turning to `Cc1nc(NC(=O)N2CCC[C@H]2C(N)=O)sc1-c1ccnc(C(C)(C)C(F)(F)F)c1` [Alpelisib], the relative viability amounted to 1.02 ± 0.032 (0.00017 µM); 1 ± 0.047 (0.00051 µM); 1.01 ± 0.039 (0.00152 µM); 1.01 ± 0.054 (0.00457 µM); 0.995 ± 0.057 (0.01372 µM); 0.931 ± 0.033 (0.04115 µM). Further, the relative viability is, setting by setting: (0.1235 µM) 0.888 ± 0.052; (0.3704 µM) 0.675 ± 0.057; (1.111 µM) 0.558 ± 0.0047; (3.333 µM) 0.425 ± 0.024; (10 µM) 0.289 ± 0.02.

Turning to `COc1cc2/c(=N/c3ccc(Br)cc3F)nc[nH]c2cc1OCC1CCN(C)CC1` [Vandetanib], the relative viability reads like this: (0.00017 µM) 1 ± 0.03; (0.00051 µM) 0.992 ± 0.024; (0.00152 µM) 1.02 ± 0.037; (0.00457 µM) 1.033 ± 0.0099; (0.01372 µM) 1.06 ± 0.035; (0.04115 µM) 0.989 ± 0.051. This compound registered a relative viability (0.1235 µM) of 1.008 ± 0.0093; a relative viability (0.3704 µM) of 0.917 ± 0.033; a relative viability (1.111 µM) of 0.762 ± 0.032; a relative viability (3.333 µM) of 0.389 ± 0.0099; a relative viability (10 µM) of 0.0169 ± 0.0022.
